# Test results taken from US20260234165A1, “MACROCYCLIC COMPOUNDS, PREPARATION METHOD THEREFOR, AND USE THEREOF” (GENFLEET THERAPEUTICS (SHANGHAI) INC., priority 2004, published 2026).
# pIC50: −log10 of the molar value. Counter-ions that a name gives are not always drawn. Like-named read-outs stand apart in the source and are kept apart here.
# What was measured:
# Type in all cases: cell-based, human
# [1] = test system: AsPC-1 cells (KRAS G12D mutation); assay: 3D cell proliferation assay (CellTiter Glo-3D), AsPC-1; details: medium with 2% FBS, read-out: AsPC-1 AP IC50
# From the text: MIA PaCa-2 cells were purchased from ATCC, Cat. No. CRL-1420; AsPC-1 cells were purchased from ATCC, Cat. No. CRL-1682; NCI-H441 cells were purchased from ATCC, Cat. No. HTB-174: NCI-H1975 cells were purchased from ATCC. Cat. No. CRL-5908; DMEM medium was purchased from Gibco, Cat. No. 11995-065: RPMI-1040 medium was purchased from Gibco. Cat. No. H 18754093; FBS was purchased from Gibco, Cat. No. 10099-141C. penicillin, streptomycin double-antibiotic solution (PS) was purchased from Gibco, Cat. No. 15140-122; Horse serum was purchased from Gibco. Cat. No. 16050130: trypsin (containing EDTA) was purchased from Gibco, Cat. No. 25200-072; DMSO was purchased from VWRAMRESCO, Cat. No. 0231-500ML; 384-well cell culture plates were purchased from Corning, Cat. No. 3830; white-bottomed, opaque 384-well assay plates were purchased from Corning, Cat. No. 3570. CellTiter Glo-3D) kit was purchased from Promega. Cat. No. G9683; cell counter was purchased from CHEMOMETEC, model: NC-200: microplate reader was purchased from PerkinElmer, model: EnVision.
# MIA PaCa-2, a human pancreatic cancer cell strain endogenously containing a KRAS^G12C mutation, was cultured in a complete medium containing DMEM+10% FBS+2.5% Horse serum+1% PS. AsPC-1, a human pancreatic cancer cell strain endogenously containing a […] mutation, was cultured in a complete medium containing RPMI-1640+10% FBS+1% PS. NCI-H441 cells, a human lung cancer cell strain endogenously containing a […] mutation, were cultured in a complete medium containing RPMI-1640+10% FBS+1% PS. NCI-H1975, a KRAS wild-type human lung cancer cell strain whose cell proliferation depends on KRAS activity, was cultured in a complete medium containing RPMI-1640+10% FBS+1% PS.
# The cells were digested with trypsin (containing EDTA), collected in their respective low-serum complete media containing 2% FBS (for MIA Paca-2 cell culture: DMEM+2% FBS+0.5% Horse serum+1% PS), and counted. After the cell density was adjusted as required, 200 MIA PaCa-2 cells, 800 AsPC-1 cells, 800 NCI-H441 cells, or 400 NCI-H1975 cells per well were seeded into a 384-well cell culture plate, with the volume of the medium in each well being 45 μL. The cell culture plate was incubated in an incubator at 37° C. with 5% CO2, overnight. A series of 3.16-fold gradient dilutions of a 1000× compound stock solution were prepared with DMSO, and then diluted 100-fold with the complete medium containing 2% FBS described above to give 10- compound stock solutions. On the day after cell seeding, 5 μL of the 10- compound stock solution was added to each cell culture well. As a result, the final concentration of the compound in the cell culture well became 1×, and the DMSO content in the well was 0.1%. In addition to the compound-treated wells described above, cell-containing DMSO control wells (with 5 μL of the complete medium containing 1% DMSO added to each well) and cell-free medium control wells (containing 50 μL of the complete medium with 2% FBS) were also set. The culture plate was incubated in an incubator at 37° C. with 5% CO2 for another 5 days, and then 30 μL of CellTiter-Glo working solution was added to each well. The mixture was well mixed, incubated for 30 min, left to stand at room temperature for 30 min, and then transferred to a white-bottomed, opaque 384-well assay plate at 40 μL/well. The chemiluminescence values (RLU) were measured using a microplate reader, and the cell proliferation inhibition rate for each well was calculated: IR (%)=(RLUDMSO—RLUcompound)/(RLUDMSO−RLUblank)×100%, where RLUDMSO is the average RLU signal value from the DMSO control well samples, RLUblank is the average RLU signal value from the medium control well samples, and RLUcompound is the RLU signal value from the compound-treated well samples. […]
# [2] = test system: p-ERK in NCI-H441 cells (KRAS G12V mutation); assay: Cell p-ERK assay (HTRF) in NCI-H441 cells; details: NCI-H441 cells, 3 h compound incubation, HTRF p-ERK T202/Y204, read-out: H441 p-ERK IC50
# In short: (§1)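 In this cellular format, endogenous KRAS-mutant lines grown in RPMI-1640 plus 10% FBS received graded compound concentrations for 3 h at 37 °C. Lysates were incubated 4 h with the phospho-T202/Y204 ERK HTRF antibody pair, and percent inhibition relative to DMSO and blank wells was curve-fitted to give IC50.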
# [3] = test system: p-ERK in AsPC-1 cells (KRAS G12D mutation); assay: Cell p-ERK assay (HTRF) in AsPC-1 cells; details: AsPC-1 cells, 3 h compound incubation, HTRF p-ERK T202/Y204, read-out: AsPC-1 p-ERK IC50
# In short: as §1
# NCI-H441 cells = assay: 3D cell proliferation assay (CellTiter Glo-3D), NCI-H441; details: medium with 2% FBS, read-out: H441 AP IC50
# In short: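 Cells were seeded at 800 per well in RPMI-1640 containing 2% FBS and left overnight. Compounds in 3.16-fold dilution series were then added at 0.1% DMSO and incubated 5 days at 37 °C. Viability was read by CellTiter-Glo 3D luminescence and IC50 values fitted by four-parameter regression.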
# [4] = Homo sapiens, ASPC1, 3D cell proliferation (CellTiter Glo-3D)
# [5] = Homo sapiens, NCI-H441, 3D cell proliferation (CellTiter Glo-3D)
# [6] = 3D cell proliferation (CellTiter Glo-3D)
SMILES,"pIC50 [1, 4]","pIC50 ([2]; Homo sapiens, NCI-H441, 3 h)","pIC50 ([3]; Homo sapiens, ASPC1, 3 h)",pIC50 (NCI-H441 cells; [5]),"pIC50 [1, 6]",pIC50 [2],pIC50 [3],pIC50 (NCI-H441 cells; [6])
"[2H]C([2H])([2H])O[C@@H](C)c1ncc(N2CCN(C)CC2)cc1-c1c2c3cc(ccc3n1CC)-c1csc(n1)C[C@H](NC(=O)C(C)(C)F)C(=O)N1CCC[C@H](N1)C(=O)OCC(C)(C)C2 (atropisomer, axis not shown; (Ra)) [Compound Z64, N-((1^2R,6^3S,4S,Z)-1^1-ethyl-(Ra)-1^2-(2-((S)-1-(methoxy-d3)ethyl)-5-(4-methylpiperazin-1-yl)pyridin-3-yl)-10,10-dimethyl-5,7-dioxo-6^1,6^2,6^3,6^4,6^5,6^6-hexahydro-1^1H-8-oxa-2(4,2)-thiazola-1(5,3)-indola-6(1,3)-pyridazinacycloundecaphane-4-yl)-2-fluoro-2-methylpropanamide]",7.89,8.48,8.20,8.20,,,,
"CCn1c(-c2cc(N3CCN(C)CC3)cnc2[C@H](C)OC)c2c3cc(ccc31)-c1csc(n1)C[C@H](NC(=O)C(C)(C)F)C(=O)N1CCC[C@H](N1)C(=O)OCC(C)(C)C2 (atropisomer, axis not shown; (Ra)) [Compound Z66, N-((6^3S,4S,Z)-1^1-ethyl-(Ra)-1^2-(2-((S)-1-methoxyethyl)-5-(4-(methyl-d3)piperazin-1-yl)pyridin-3-yl)-10,10-dimethyl-5,7-dioxa-6^1,6^2,6^3,6^4,6^5,6^6-hexahydro-1^1H-8-oxa-2(4,2)-thiazola-1(5,3)-indola-6(1,3)-pyridazinacycloundecaphane-4-yl)-2-fluoro-2-methylpropanamide]",,,,,7.68,8.37,8.57,8.24
"CCn1c(-c2cc(N3CCN(C)CC3)cnc2[C@H](C)OC)c2c3cc(ccc31)-c1csc(n1)C[C@H](NC1=NCCO1)C(=O)N1CCC[C@H](N1)C(=O)OCC(C)(C)C2 (atropisomer, axis not shown; (Ra)) [Compound Z71, (6^3S,4S,Z)-1^1-ethyl-(Ra)-1^2-(2-((S)-1-methoxyethyl)-5-(4-methylpiperazin-1-yl)pyridin-3-yl)-10,10-dimethyl-4-((4.5-dihydrooxazol-2-yl)amino)-6^1,6^2,6^3,6^4,6^5,6^6-hexahydro-1^1H-8-oxa-2(4,2)-thiazola-1(5,3)-indola-6(1,3)-pyridazinacycloundecaphane-5,7-dione formate]",6.52,7.38,7.02,6.83,,,,
"CCn1c(-c2cc(N3CCN4CCOC[C@@H]4C3)cnc2[C@H](C)OC)c2c3cc(ccc31)-c1csc(n1)C[C@H](NC(=O)[C@H]1[C@H](C)[C@@H]1C)C(=O)N1CCC[C@H](N1)C(=O)OCC(C)(C)C2 (atropisomer, axis not shown; (Ra)) [Compound Z73, (1r,2R,3S)—N-((6^3S,4S,Z)-1^1-ethyl-(Ra)-1^2-(5-((S)-hexahydropyrazino[2,1-c][1,4]oxazin-8(1H)-yl)-2-((S)-1-(methoxy-d3)ethyl)pyridin-3-yl)-10,10-dimethyl-5,7-dioxo-6^1,6^2,6^3,6^4,6^5,6^6-hexahydro-1^1H-8-oxa-2(4,2)-thiazola-1(5,3)-indola-6(1,3)-pyridazinacycloundecaphane-4-yl)-2,3-dimethylcyclopropane-1-carboxamide]",,,,,9.19,9.62,9.68,9.46
"C=C1CCN2CCN(c3cnc([C@H](C)OC)c(-c4c5c6cc(ccc6n4CC)-c4csc(n4)C[C@H](NC(=O)[C@H]4[C@H](C)[C@@H]4C)C(=O)N4CCC[C@H](N4)C(=O)OCC(C)(C)C5)c3)C[C@H]2C1 (atropisomer, axis not shown; (Ra)) [Compound Z309, (1r,2R,3S)—N-((6^3S,4S,Z)-1^1-ethyl-(Ra)-1^2-(2-((S)-1-methoxyethyl)-5-((R)-8-methyleneoctahydro-2H-pyrido[1,2-a]pyrazin-2-yl)pyridin-3-yl)-10,10-dimethyl-5,7-dioxo-6^1,6^2,6^3,6^4,6^5,6^6-hexahydro-1^1H-8-oxa-2(4,2)-thiazola-1(5,3)-indola-6(1,3)-pyridazinacycloundecaphane-4-yl)-2,3-dimethylcyclopropane-1-carboxamide]",8.68,,,9.21,,9.02,9.42,
"CO[C@@H](C)c1ncc(C#CCN2CCC2)cc1-c1c2c3cc(ccc3n1CC(F)(F)F)-c1csc(n1)C[C@H](NC(=O)[C@H]1[C@H](C)[C@@H]1C)C(=O)N1CCC[C@H](N1)C(=O)OCC(C)(C)C2 (atropisomer, axis not shown; (Ra)) [Compound Z362-2, (1r,2R,3S)—N-((6^3S,4S,Z)-1′-(5-(3-(azetidin-1-yl)prop-1-yn-1-yl)-(Ra)-2-((S)-1-methoxyethyl)pyridin-3-yl)-10,10-dimethyl-5,7-dioxo-1^1-(2,2,2-trifluoroethyl)-6^1,6^2,6^3,6^4,6^5,6^6-hexahydro-1^1H-8-oxa-2(4,2)-thiazola-1(5,3)-indola-6(1,3)-pyridazinacycloundecaphane-4-yl)-2,3-dimethylcyclopropane-1-carboxamide]",9.09,9.15,9.32,9.17,,,,
"CCn1c(-c2cc(OCCN3CCOC4(CC4)C3)cnc2[C@H](C)OC)c2c3cc(ccc31)-c1csc(n1)C[C@H](NC(=O)[C@H]1[C@H](C)[C@@H]1C)C(=O)N1CCC[C@H](N1)C(=O)OCC1(CC1)C2 (atropisomer, axis not shown; (Ra)) [Compound Z375]",8.16,9.04,8.41,8.43,,,,
